Results taken from US20130303768A1, “METHOD AND SUBSTANCES FOR PREPARATION OF N-SUBSTITUTED PYRIDINIUM COMPOUNDS” (ROCHE DIAGNOSTICS OPERATIONS, INC., priority 2011, published 2013).

What was measured:
[1] = UV/VIS absorption spectrum after enzymatic reduction; format: physicochemical; settings: FIG. 1, reduced form
Description: (§1) After mixing and tempering to 25° C., the reaction was started by addition of 0.05 ml the above mentioned corresponding GlucDH2-solutions. An UV/VIS spectra was recorded after 30 min.
This is a significant advantage for redox-based assays, since it allows to reduce or avoid the interference from auto-fluorescent compounds comprised in (biological) samples

GlucDH mut 2 = test: Enzymatic reduction of Acetyl-cNAD by GlucDH mut 2 with glucose; format: biochemical; settings: 25° C., Tris-buffer pH 8.5, glucose, UV/VIS spectra after 30 min
Description: Acetyl-cNADH and for comparison cNAD, cNADP were reduced by using GlucDH mut 2 (WO2010/094632) using the following conditions:
A Dilution buffer (NaCl 0.2 mol/l; Tris 0.1 mol/l; pH 8.5) was prepared as follows: 11.7 g NaCl and 12.1 g Tris (=[…]) were dissolved in 900 ml bidest. water and the pH was adjusted to pH 8.5 by addition of HCL 1N and filled to 1.00 l with bidest. Water.
Glucose-solution: 2.00 g D(+)-Glucose-Monohydrate were dissolved in 10.0 ml bidest. water. The solution is ready for usage after 2 h at room temperature.
GlucDH2-stock-solution: 10.0 mg of the enzyme (Lyo) were dissolved in 1.00 ml Tris-buffer.
Reduction of Acetyl-cNAD-solution (15 mmol/l): 9.90 mg Acetyl-cNAD (Mw=659.47 g/mol) were dissolved in 1.00 ml bidest. water.
100 μl GlucDH2-stock-solution were dissolved in 0.90 ml dilution buffer (dilution factor=10).
1. The tempered (25° C.) reagent solutions were pipetted into a 1 cm plastic cuvette as follows:
as §1

| absorption maximum [1] | Compound | coenzyme function for a dehydrogenase (GlucDH mut 2) |
| --- | --- | --- |
| about 380 nm | Acetyl-cNADH | – |
| – | CC(=O)c1ccc[n+]([C@@H]2C[C@H](COP(=O)([O-])OP(=O)(O)OC[C@H]3O[C@@H](n4cnc5c(N)ncnc54)[C@H](O)[C@@H]3O)[C@@H](O)[C@H]2O)c1 [Acetyl-cNAD] | serves as a coenzyme for a dehyrogenase |
